The values that follow come from the supplement of paper PMC10307832.

Experiment in all cases: relative viability (nuclei count vs DMSO), 5 days (fraction); higher = more cells survive
Compound in the experiment “AZD5582 + Decitabine”: C[C@@H](C(=O)N[C@@H](C1CCCCC1)C(=O)N2CCC[C@H]2C(=O)N[C@@H]3[C@@H](CC4=CC=CC=C34)OCC#CC#CCO[C@@H]5CC6=CC=CC=C6[C@@H]5NC(=O)[C@@H]7CCCN7C(=O)[C@H](C8CCCCC8)NC(=O)[C@H](C)NC)NC [AZD5582] + Nc1ncn([C@H]2C[C@H](O)[C@@H](CO)O2)c(=O)n1 [Decitabine] (partner 2 µM)
Put shortly:
(§1)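 Nuclei were stained with Hoechst during a one-step fixation (final 0.05% Triton X-100, 1% formaldehyde, 1 ug/ml Hoechst) carried out 5 days after dosing, then counted on 4× images. The cells, lung cancer lines in 1536-well plates, had been dosed by pin tool the day after seeding with one drug alone or a fixed anchor-drug dose plus five library-drug doses (not always all listed) in √10 steps. Relative viability is the nuclei count in treated wells divided by that in vehicle wells, and each value is the median of duplicate plates.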

Compound in the experiment “AZD5582 + Phenformin”: C[C@@H](C(=O)N[C@@H](C1CCCCC1)C(=O)N2CCC[C@H]2C(=O)N[C@@H]3[C@@H](CC4=CC=CC=C34)OCC#CC#CCO[C@@H]5CC6=CC=CC=C6[C@@H]5NC(=O)[C@@H]7CCCN7C(=O)[C@H](C8CCCCC8)NC(=O)[C@H](C)NC)NC [AZD5582] + N=C(N)NC(=N)NCCc1ccccc1 [Phenformin] (partner 250 µM)
Put shortly: as §1

Compound in the experiment “AZD5582 + Luminespib”: C[C@@H](C(=O)N[C@@H](C1CCCCC1)C(=O)N2CCC[C@H]2C(=O)N[C@@H]3[C@@H](CC4=CC=CC=C34)OCC#CC#CCO[C@@H]5CC6=CC=CC=C6[C@@H]5NC(=O)[C@@H]7CCCN7C(=O)[C@H](C8CCCCC8)NC(=O)[C@H](C)NC)NC [AZD5582] + CCNC(=O)c1noc(-c2cc(C(C)C)c(O)cc2O)c1-c1ccc(CN2CCOCC2)cc1 [Luminespib] (partner 0.01 µM)
Put shortly: as §1

Compound in experiment [1]: Cn1nnc2c(C(N)=O)ncn2c1=O [Temozolomide] + C[C@]1(O)C[C@@H](c2nc(-c3ccc4ccc(-c5ccccc5)nc4c3)c3c(N)nccn32)C1 [Linsitinib] (partner 1 µM)
In a few lines:
as §1

As to NCI-H522, the relative viability was 0.624 in the experiment with AZD5582 + Decitabine (first compound 0.001581 µM); 0.711 with AZD5582 + Decitabine (first compound 0.005 µM); 0.624 with AZD5582 + Decitabine (first compound 0.01581 µM); 0.641 in the experiment with AZD5582 + Decitabine (first compound 0.05 µM); 0.635 in the experiment with AZD5582 + Phenformin (first compound 0.001581 µM); 0.643 with AZD5582 + Phenformin (first compound 0.005 µM). The relative viability was found to be 0.649 with AZD5582 + Phenformin (first compound 0.01581 µM); 0.65 with AZD5582 + Phenformin (first compound 0.05 µM); 0.953 with AZD5582 + Luminespib (first compound 0.001581 µM); 1.03 with AZD5582 + Luminespib (first compound 0.005 µM); 1.2 with AZD5582 + Luminespib (first compound 0.01581 µM); 1.29 with AZD5582 + Luminespib (first compound 0.05 µM).

As to IA-LM, the relative viability came out at 0.941 in experiment [1] (first compound 0.2 µM); 0.518 in experiment [1] (first compound 0.6325 µM); 0.664 in experiment [1] (first compound 2 µM); 0.548 in experiment [1] (first compound 6.325 µM); 0.909 in experiment [1] (first compound 20 µM).

NCI-H1299: the relative viability in experiment [1] (first compound 0.2 µM) is 0.994; in experiment [1] (first compound 0.6325 µM), 0.961; in experiment [1] (first compound 2 µM), 1.16; in experiment [1] (first compound 6.325 µM) it was 1; in experiment [1] (first compound 20 µM), 1.02.

For NCI-H1623, the relative viability with AZD5582 + Phenformin (first compound 0.001581 µM) was 0.565; with AZD5582 + Phenformin (first compound 0.005 µM), 0.61; with AZD5582 + Phenformin (first compound 0.01581 µM), 0.565; with AZD5582 + Phenformin (first compound 0.05 µM) it was 0.46; in the experiment with AZD5582 + Luminespib (first compound 0.001581 µM), 0.405; with AZD5582 + Luminespib (first compound 0.005 µM), 0.551. Moreover, the relative viability with AZD5582 + Luminespib (first compound 0.01581 µM) stood at 0.572; with AZD5582 + Luminespib (first compound 0.05 µM) it was 0.543.

With NCI-H2228, the relative viability in experiment [1] (first compound 0.2 µM) was 0.794; in experiment [1] (first compound 0.6325 µM) it was 0.705; in experiment [1] (first compound 2 µM), 0.693; in experiment [1] (first compound 6.325 µM), 0.636; in experiment [1] (first compound 20 µM), 0.822; in the experiment with AZD5582 + Phenformin (first compound 0.001581 µM) it was 0.335. For the same cell line, the relative viability with AZD5582 + Phenformin (first compound 0.005 µM) was 0.296; in the experiment with AZD5582 + Phenformin (first compound 0.01581 µM), 0.321; with AZD5582 + Phenformin (first compound 0.05 µM), 0.0886; in the experiment with AZD5582 + Luminespib (first compound 0.001581 µM), 0.136; in the experiment with AZD5582 + Luminespib (first compound 0.005 µM), 0.205; with AZD5582 + Luminespib (first compound 0.01581 µM), 0.144. Moreover, the relative viability in the experiment with AZD5582 + Luminespib (first compound 0.05 µM) was found to be 0.15.

Consider NCI-H1563, for which the relative viability in experiment [1] (first compound 0.2 µM) came out at 1.14; in experiment [1] (first compound 0.6325 µM) it was 1.26; in experiment [1] (first compound 2 µM), 1.39; in experiment [1] (first compound 6.325 µM), 1.23; in experiment [1] (first compound 20 µM) it was 1.22; with AZD5582 + Phenformin (first compound 0.001581 µM) it was 0.641. For the same cell line, the relative viability with AZD5582 + Phenformin (first compound 0.005 µM) was found to be 0.665; in the experiment with AZD5582 + Phenformin (first compound 0.01581 µM) it was 0.574; in the experiment with AZD5582 + Phenformin (first compound 0.05 µM) it was 0.627; with AZD5582 + Luminespib (first compound 0.001581 µM), 0.509; with AZD5582 + Luminespib (first compound 0.005 µM), 0.551; in the experiment with AZD5582 + Luminespib (first compound 0.01581 µM), 0.52. The relative viability with AZD5582 + Luminespib (first compound 0.05 µM) is 0.52.

As to NCI-H1648, the relative viability in the experiment with AZD5582 + Decitabine (first compound 0.001581 µM) worked out at 0.502; with AZD5582 + Decitabine (first compound 0.005 µM), 0.528; in the experiment with AZD5582 + Decitabine (first compound 0.05 µM), 0.466.

Turning to ChaGo-K-1, the relative viability with AZD5582 + Decitabine (first compound 0.001581 µM) turned out to be 0.545; with AZD5582 + Decitabine (first compound 0.005 µM), 0.579; with AZD5582 + Decitabine (first compound 0.01581 µM), 0.509; in the experiment with AZD5582 + Decitabine (first compound 0.05 µM), 0.597; in the experiment with AZD5582 + Phenformin (first compound 0.001581 µM), 0.445; with AZD5582 + Phenformin (first compound 0.005 µM) it was 0.54. Besides, the relative viability with AZD5582 + Phenformin (first compound 0.01581 µM) amounted to 0.4; with AZD5582 + Phenformin (first compound 0.05 µM), 0.513; in the experiment with AZD5582 + Luminespib (first compound 0.001581 µM), 0.518; with AZD5582 + Luminespib (first compound 0.005 µM) it was 0.691; in the experiment with AZD5582 + Luminespib (first compound 0.01581 µM) it was 0.518; in the experiment with AZD5582 + Luminespib (first compound 0.05 µM), 0.633.

Regarding Calu-6, the relative viability in experiment [1] (first compound 0.2 µM) was 0.929; in experiment [1] (first compound 0.6325 µM), 0.941; in experiment [1] (first compound 2 µM), 1.17; in experiment [1] (first compound 6.325 µM) it was 0.971; in experiment [1] (first compound 20 µM), 1.02.

With NCI-H2342, the relative viability with AZD5582 + Decitabine (first compound 0.001581 µM) turned out to be 0.692; with AZD5582 + Decitabine (first compound 0.005 µM) it was 0.835; with AZD5582 + Decitabine (first compound 0.01581 µM), 0.698; with AZD5582 + Decitabine (first compound 0.05 µM) it was 0.702; with AZD5582 + Phenformin (first compound 0.001581 µM), 0.551; with AZD5582 + Phenformin (first compound 0.005 µM), 0.556. Also, the relative viability with AZD5582 + Phenformin (first compound 0.01581 µM) stood at 0.528; with AZD5582 + Phenformin (first compound 0.05 µM), 0.634; in the experiment with AZD5582 + Luminespib (first compound 0.001581 µM), 0.784; with AZD5582 + Luminespib (first compound 0.005 µM) it was 0.887; with AZD5582 + Luminespib (first compound 0.01581 µM) it was 0.737; with AZD5582 + Luminespib (first compound 0.05 µM), 0.755.

Regarding NCI-H1650, the relative viability is 0.389 in the experiment with AZD5582 + Decitabine (first compound 0.001581 µM); 0.366 in the experiment with AZD5582 + Decitabine (first compound 0.005 µM); 0.51 with AZD5582 + Decitabine (first compound 0.01581 µM); 0.279 in the experiment with AZD5582 + Decitabine (first compound 0.05 µM); 0.461 with AZD5582 + Phenformin (first compound 0.001581 µM); 0.492 with AZD5582 + Phenformin (first compound 0.005 µM). In addition, the relative viability in the experiment with AZD5582 + Phenformin (first compound 0.01581 µM) stood at 0.342; with AZD5582 + Phenformin (first compound 0.05 µM), 0.394; in the experiment with AZD5582 + Luminespib (first compound 0.001581 µM) it was 0.2; in the experiment with AZD5582 + Luminespib (first compound 0.005 µM) it was 0.21; with AZD5582 + Luminespib (first compound 0.01581 µM), 0.189; with AZD5582 + Luminespib (first compound 0.05 µM), 0.211.

As to EBC-1, the relative viability in experiment [1] (first compound 0.2 µM) amounted to 1.03; in experiment [1] (first compound 0.6325 µM), 0.885; in experiment [1] (first compound 2 µM) it was 1.13; in experiment [1] (first compound 6.325 µM), 0.912; in experiment [1] (first compound 20 µM), 0.947.

As to A549, the relative viability was determined as 0.348 in experiment [1] (first compound 0.2 µM); 0.684 in experiment [1] (first compound 0.6325 µM); 0.759 in experiment [1] (first compound 2 µM); 0.517 in experiment [1] (first compound 6.325 µM); 0.467 in experiment [1] (first compound 20 µM); 0.214 with AZD5582 + Decitabine (first compound 0.001581 µM). For the same cell line, the relative viability in the experiment with AZD5582 + Decitabine (first compound 0.005 µM) amounted to 0.271; with AZD5582 + Decitabine (first compound 0.01581 µM), 0.211; with AZD5582 + Decitabine (first compound 0.05 µM) it was 0.263; with AZD5582 + Phenformin (first compound 0.001581 µM) it was 0.172; with AZD5582 + Phenformin (first compound 0.005 µM) it was 0.127; with AZD5582 + Phenformin (first compound 0.01581 µM), 0.152. For the same cell line, the relative viability with AZD5582 + Phenformin (first compound 0.05 µM) was 0.278.

Turning to SW 900, the relative viability was found to be 0.372 with AZD5582 + Decitabine (first compound 0.001581 µM); 0.364 in the experiment with AZD5582 + Decitabine (first compound 0.005 µM); 0.38 with AZD5582 + Decitabine (first compound 0.01581 µM); 0.246 in the experiment with AZD5582 + Decitabine (first compound 0.05 µM); 0.502 with AZD5582 + Phenformin (first compound 0.001581 µM); 0.632 with AZD5582 + Phenformin (first compound 0.005 µM). Moreover, the relative viability with AZD5582 + Phenformin (first compound 0.01581 µM) stood at 0.414; with AZD5582 + Phenformin (first compound 0.05 µM) it was 0.401; in the experiment with AZD5582 + Luminespib (first compound 0.001581 µM) it was 0.168; with AZD5582 + Luminespib (first compound 0.005 µM), 0.169; with AZD5582 + Luminespib (first compound 0.01581 µM), 0.208; with AZD5582 + Luminespib (first compound 0.05 µM) it was 0.188.
